Measurements from patent US10053485B2, “Cytotoxic agents that preferentially target leukemia inhibitory factor (LIF) for the treatment of malignancies and as new contraceptive agents” (Evestra, Inc., priority 2015, dated 2018).

Experiments:
HCT-15 = experiment: NCI-60 screen, Colon Cancer panel; assay type: cell-based; details: Homo sapiens, HCT-15, 48 h
HCT-116 = experiment: NCI-60 screen, Colon Cancer panel; assay type: cell-based; details: Homo sapiens, HCT-116, 48 h
[1] = read-out: GI50 (log10GI50) (converted)
[2] = read-out: LC50 (log10LC50) (converted)

Structure (SMILES): C#CC(F)(F)[C@]1(O)CCC2C3CCC4=CC(=O)CCC4=C3C(c3ccc(C4CC4)cc3)C[C@@]21C (stereo partly drawn) [EC330, 17α-(1,1-difluoro-2-propyn-1-yl)-17β-hydroxy-11β-[4-p-(cyclopropyl)phenyl]estra-4,9-dien-3-one]
- GI50 (HCT-15; [1]): 1.48 µM
- CC50 (HCT-15; [2]): > 100 µM
- GI50 (HCT-116; [1]): 2.82 µM
- CC50 (HCT-116; [2]): > 100 µM
